Measured values published in patent US12016863B2, “Inhibitors of RSV replication and applications thereof” (priority 2018, dated 2024).

What was measured:
RSV [1] = experiment: Cell-based anti-RSV potency in BEAS2B cells; settings: human respiratory syncytial virus, BEAS-2B
From the text: (§1) For initial potency assessment, recombinant RSV reporter viruses can be employed to determine dose-response curves. These tests can be run routinely in an automated format, simultaneously assessing 8-fold serial compound dilutions in 3 independent replicates. Active concentrations can be calculated by four-parameter variable slope regression modeling. Individual prodrug candidates failing this assay can be tested for membrane permeability using a Caco-2 cell assay. Resistance-validated Caco-2 monolayers (TEER value >0.5×103Ω) will receive compound from the apical side, followed by LC-MS/MS-based quantification of substance intracellularly and in both chambers after 2-hour incubation. Atenolol, propranolol, and talinolol can be included as references and permeability coefficients (Papp) calculated. Candidates with poor Papp values can be reformulated synthetically. In parallel, all candidates can be subjected to rapid cytotoxicity screening, relying on PrestoBlue to monitor the redox potential of living cells after 48-hour exposure to a concentration range of compound. A validated automated cytotoxicity test pipeline has been established and can calculate CC50 values through variable slope regression modeling.

[2] = Cytotoxicity in BEAS2B cells; format: cell-based; settings: human, read-out: CC50 BEAS2B cells RSV
From the text: as §1

[3] = molecular target: RSV N protein (N-P interaction) (Human respiratory syncytial virus A (strain A2), UniProt P03418); experiment: FP assay: competition with 5-FAM-Ppep for purified RSV N; format: binding; settings: for Ki: FP assay, purified RSV N vs 5-FAM-Ppep
RSV [4] = experiment: Cell-based anti-RSV potency in HEp2 cells; settings: human respiratory syncytial virus, HEp-2
From the text: as §1

[5] = Cytotoxicity in HEp2 cells; format: cell-based; settings: human, read-out: CC50 HEp2 cells RSV
From the text: as §1

RSV N-P interaction = RSV N-P interaction (Human respiratory syncytial virus A (strain A2), UniProt P03418); experiment: Biolayer interferometry (BLI) competition assay, purified N to P protein biosensors; format: binding; settings: PBS+BSA 0.01% +Tween20 0.002%
From the text: Dissociation rates of purified N to P protein biosensors determined in presence of GRP-171194 under stringent conditions (PBS+BSA 0.01% +Tween20 0.002%).

RSV N protein (N-P interaction), sequence (P03418 whole entry): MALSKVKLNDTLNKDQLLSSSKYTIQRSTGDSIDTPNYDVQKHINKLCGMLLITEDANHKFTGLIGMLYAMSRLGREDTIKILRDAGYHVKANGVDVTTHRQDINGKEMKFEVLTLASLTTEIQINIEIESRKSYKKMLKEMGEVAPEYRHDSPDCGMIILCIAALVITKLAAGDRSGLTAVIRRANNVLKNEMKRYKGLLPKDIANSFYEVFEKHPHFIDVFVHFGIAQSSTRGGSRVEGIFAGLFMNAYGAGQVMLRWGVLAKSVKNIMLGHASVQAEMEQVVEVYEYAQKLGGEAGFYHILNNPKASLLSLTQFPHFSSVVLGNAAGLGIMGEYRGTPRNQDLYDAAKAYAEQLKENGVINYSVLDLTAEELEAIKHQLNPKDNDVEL
RSV N-P interaction, sequence (P03418 whole entry): as above

Row | Structure (SMILES) | IC50 (RSV [1]) | CC50 at 48 h [2] | Ki [3] | IC50 (RSV [4]) | CC50 at 48 h [5] | inhibition of purified N binding to P protein biosensors (BLI) (RSV N-P interaction) | competition with 5-FAM-Ppep for N in FP assay ([3]; compound 0.31-40 μM, 5-FAM-Ppep 1 μM)
1 | Cc1c(Cl)c(=O)oc2cc(O)ccc12 [AX801] | 65 µM | 116 µM | > 300 µM |  |  |  | 
2 | CC(C)COC(=O)C1=CC(c2ccccc2Cl)n2nnnc2N1 (centres unmarked) [EJ3043] | > 300 µM | > 300 µM | > 300 µM | > 300 µM | > 300 µM |  | 
3 | COC(=O)C1=CC(c2ccccc2Cl)n2nnnc2N1 (centres unmarked) [EJ3051] | 101 µM | 102 µM | > 300 µM |  |  |  | 
4 | CN(C)C(=O)C1=CC(c2ccccc2Cl)n2nnnc2N1 (centres unmarked) [EJ3054] | 100 µM | 131 µM | > 300 µM |  |  |  | 
5 | CNC(=O)C1=CC(c2ccccc2Cl)n2nnnc2N1 (centres unmarked) [EJ3057] | 112 µM | > 100 µM | > 300 µM |  |  |  | 
6 | COc1ccc2c(C)c(Cl)c(=O)oc2c1 [EJ3061] |  |  | > 300 µM |  |  |  | 
7 | CCOC(=O)C1=CC(c2ccccc2Cl)n2nnnc2N1 (centres unmarked) [EJ3062] | > 300 µM | > 300 µM | > 300 µM | > 300 µM | > 300 µM |  | 
8 | Cc1c(Cl)c(=O)oc2cc(OC(C)C)ccc12 [EJ3063] | 14.6 µM | > 300 µM | > 300 µM | 1.9 µM | 1.2 µM |  | 
9 | COC(=O)Nc1ccc2c(C)c(Cl)c(=O)oc2c1 [EJ3066] | 130 µM | > 100 µM | > 300 µM | > 100 µM | > 100 µM |  | 
10 | CC(=O)Oc1ccc2c(C)cc(=O)oc2c1 [EJ21257] | > 300 µM | 113 µM | 2.9 µM | > 300 µM | > 100 µM |  | 
11 | O=C(O)C1=CC(c2ccccc2Cl)n2nnnc2N1 (centres unmarked) [GRP-171194, 7-(2-chlorophenyl)-4,7-dihydrotetrazolo[1,5-a]pyrimidine-5-carboxylic acid] | > 300 µM | > 300 µM | 2.4 µM | > 300 µM | > 300 µM | dose-dependent inhibition | dose-dependent competition
12 | CC(=O)Oc1ccc2c(C)c(Cl)c(=O)oc2c1 [GRP-268365] |  |  | 2.2 µM |  |  |  | 
13 | O=C(O)C1=CC(c2ccccc2)n2nnnc2N1 (centres unmarked) [RJW-3-024] | > 300 µM | > 300 µM | 10 µM |  |  |  | 
14 | O=C(OCC(F)(F)F)C1=CC(c2ccccc2Cl)n2nnnc2N1 (centres unmarked) [ZD-3-064] | > 300 µM | > 300 µM | > 300 µM |  |  |  | 
15 | Cc1c(Cl)c(=O)oc2cc(OC(=O)C(C)C)ccc12 [ZD-3-067] | 136 µM | 251 µM | 1.6 µM | 6.5 µM | 7 µM |  | 
16 | CC(C)OC(=O)C1=CC(c2ccccc2Cl)n2nnnc2N1 (centres unmarked) [ZD-3-069] | > 300 µM | > 300 µM | > 300 µM | > 300 µM | > 300 µM |  | 
